The values below come from ChEMBL document CHEMBL3991601, “The target landscape of clinical kinase drugs” (Science, 2017).

Calls of active or inactive are those of the source. Some results are limits rather than exact numbers.

The target in assay [1] is T1, Serine/threonine-protein kinase A-Raf (Homo sapiens, UniProt P10398).
T1 sequence (P10398 whole entry): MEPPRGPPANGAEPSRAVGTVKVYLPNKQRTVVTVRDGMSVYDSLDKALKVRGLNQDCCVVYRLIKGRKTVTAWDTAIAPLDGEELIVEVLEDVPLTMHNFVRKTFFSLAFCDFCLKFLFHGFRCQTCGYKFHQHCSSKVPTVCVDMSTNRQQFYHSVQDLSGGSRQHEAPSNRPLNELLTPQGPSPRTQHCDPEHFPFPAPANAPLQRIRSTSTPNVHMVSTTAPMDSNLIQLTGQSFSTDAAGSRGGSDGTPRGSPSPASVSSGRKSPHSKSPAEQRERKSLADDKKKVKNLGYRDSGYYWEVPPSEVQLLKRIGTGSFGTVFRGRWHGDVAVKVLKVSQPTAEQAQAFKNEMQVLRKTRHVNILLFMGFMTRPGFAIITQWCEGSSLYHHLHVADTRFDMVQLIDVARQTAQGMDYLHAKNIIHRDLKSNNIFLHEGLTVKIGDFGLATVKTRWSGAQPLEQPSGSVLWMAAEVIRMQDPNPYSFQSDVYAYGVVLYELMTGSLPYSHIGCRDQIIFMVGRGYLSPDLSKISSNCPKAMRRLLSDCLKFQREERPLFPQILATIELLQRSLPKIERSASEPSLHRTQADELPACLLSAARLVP

In a further assay the target is LIM domain kinase 1 (Homo sapiens, UniProt P53667).
Sequence of LIM domain kinase 1 (P53667 whole entry, the tested form may be a part, canonical isoform): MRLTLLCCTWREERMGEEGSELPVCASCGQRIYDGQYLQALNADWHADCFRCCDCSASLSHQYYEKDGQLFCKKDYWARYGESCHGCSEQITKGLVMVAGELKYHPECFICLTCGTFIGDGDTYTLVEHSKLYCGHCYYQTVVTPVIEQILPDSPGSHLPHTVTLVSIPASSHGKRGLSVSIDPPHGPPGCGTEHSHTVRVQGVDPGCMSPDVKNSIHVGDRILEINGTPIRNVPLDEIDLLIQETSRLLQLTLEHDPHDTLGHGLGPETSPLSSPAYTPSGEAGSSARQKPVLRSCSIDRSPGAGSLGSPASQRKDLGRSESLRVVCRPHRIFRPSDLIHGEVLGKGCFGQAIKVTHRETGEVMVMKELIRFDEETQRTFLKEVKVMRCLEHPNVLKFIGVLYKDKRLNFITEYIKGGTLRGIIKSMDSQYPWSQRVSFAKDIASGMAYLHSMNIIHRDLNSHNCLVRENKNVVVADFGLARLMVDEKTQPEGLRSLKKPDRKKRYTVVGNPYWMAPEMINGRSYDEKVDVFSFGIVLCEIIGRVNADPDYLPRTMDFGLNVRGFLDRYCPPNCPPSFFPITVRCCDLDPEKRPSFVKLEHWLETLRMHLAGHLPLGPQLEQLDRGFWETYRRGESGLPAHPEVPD
Assay [2] has as its target S-adenosylmethionine synthase isoform type-2 (Homo sapiens, UniProt P31153).
For a further assay, the target named is Midasin (Homo sapiens, UniProt Q9NU22).
For assay [3], the target named is T2, Serine/threonine-protein kinase NLK (Homo sapiens, UniProt Q9UBE8).
T2 sequence (Q9UBE8 whole entry): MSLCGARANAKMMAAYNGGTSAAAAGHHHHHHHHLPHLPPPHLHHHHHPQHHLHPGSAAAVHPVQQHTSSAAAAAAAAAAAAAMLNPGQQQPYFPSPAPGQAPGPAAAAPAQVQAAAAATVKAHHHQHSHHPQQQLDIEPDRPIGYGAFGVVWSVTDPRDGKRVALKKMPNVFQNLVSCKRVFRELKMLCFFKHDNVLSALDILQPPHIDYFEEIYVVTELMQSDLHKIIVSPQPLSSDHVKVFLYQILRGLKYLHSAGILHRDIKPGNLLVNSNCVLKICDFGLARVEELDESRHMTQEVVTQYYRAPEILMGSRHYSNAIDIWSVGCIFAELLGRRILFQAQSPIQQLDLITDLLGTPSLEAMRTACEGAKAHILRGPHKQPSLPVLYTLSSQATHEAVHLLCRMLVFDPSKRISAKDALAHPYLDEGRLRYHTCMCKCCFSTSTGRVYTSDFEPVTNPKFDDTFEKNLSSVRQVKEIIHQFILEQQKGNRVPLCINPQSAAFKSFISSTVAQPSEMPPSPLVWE

For assay [4], the target named is T3, Dynamin-like GTPase OPA1, mitochondrial (Homo sapiens, UniProt O60313).
T3 sequence (O60313 whole entry): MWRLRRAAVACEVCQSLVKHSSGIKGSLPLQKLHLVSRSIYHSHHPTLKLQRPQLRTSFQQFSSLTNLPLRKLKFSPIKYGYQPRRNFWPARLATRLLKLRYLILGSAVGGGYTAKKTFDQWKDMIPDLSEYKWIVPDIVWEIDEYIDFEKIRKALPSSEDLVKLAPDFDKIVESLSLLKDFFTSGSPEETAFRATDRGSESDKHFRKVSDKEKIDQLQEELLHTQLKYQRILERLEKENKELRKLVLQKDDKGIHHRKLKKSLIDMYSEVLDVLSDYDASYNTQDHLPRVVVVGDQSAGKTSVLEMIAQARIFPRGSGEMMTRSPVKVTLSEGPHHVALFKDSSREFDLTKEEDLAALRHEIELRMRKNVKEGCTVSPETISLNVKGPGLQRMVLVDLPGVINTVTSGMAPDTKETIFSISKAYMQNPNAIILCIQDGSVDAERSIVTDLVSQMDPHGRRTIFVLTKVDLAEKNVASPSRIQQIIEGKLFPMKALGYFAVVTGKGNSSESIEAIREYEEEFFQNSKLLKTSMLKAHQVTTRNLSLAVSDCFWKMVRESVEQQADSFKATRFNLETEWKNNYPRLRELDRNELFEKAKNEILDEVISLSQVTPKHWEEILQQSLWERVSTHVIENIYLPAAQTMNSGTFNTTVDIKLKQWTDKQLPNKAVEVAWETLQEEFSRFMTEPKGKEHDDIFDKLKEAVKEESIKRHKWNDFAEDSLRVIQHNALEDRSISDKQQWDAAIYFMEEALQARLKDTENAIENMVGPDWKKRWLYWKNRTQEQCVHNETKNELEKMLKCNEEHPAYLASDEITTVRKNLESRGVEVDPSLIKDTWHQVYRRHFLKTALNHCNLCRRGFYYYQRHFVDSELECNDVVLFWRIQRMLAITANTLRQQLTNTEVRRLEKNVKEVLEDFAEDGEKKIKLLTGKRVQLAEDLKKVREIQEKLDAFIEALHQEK

For assay [5], the target named is Platelet-derived growth factor receptor beta (Homo sapiens, UniProt P09619).
Sequence of Platelet-derived growth factor receptor beta (P09619 whole entry): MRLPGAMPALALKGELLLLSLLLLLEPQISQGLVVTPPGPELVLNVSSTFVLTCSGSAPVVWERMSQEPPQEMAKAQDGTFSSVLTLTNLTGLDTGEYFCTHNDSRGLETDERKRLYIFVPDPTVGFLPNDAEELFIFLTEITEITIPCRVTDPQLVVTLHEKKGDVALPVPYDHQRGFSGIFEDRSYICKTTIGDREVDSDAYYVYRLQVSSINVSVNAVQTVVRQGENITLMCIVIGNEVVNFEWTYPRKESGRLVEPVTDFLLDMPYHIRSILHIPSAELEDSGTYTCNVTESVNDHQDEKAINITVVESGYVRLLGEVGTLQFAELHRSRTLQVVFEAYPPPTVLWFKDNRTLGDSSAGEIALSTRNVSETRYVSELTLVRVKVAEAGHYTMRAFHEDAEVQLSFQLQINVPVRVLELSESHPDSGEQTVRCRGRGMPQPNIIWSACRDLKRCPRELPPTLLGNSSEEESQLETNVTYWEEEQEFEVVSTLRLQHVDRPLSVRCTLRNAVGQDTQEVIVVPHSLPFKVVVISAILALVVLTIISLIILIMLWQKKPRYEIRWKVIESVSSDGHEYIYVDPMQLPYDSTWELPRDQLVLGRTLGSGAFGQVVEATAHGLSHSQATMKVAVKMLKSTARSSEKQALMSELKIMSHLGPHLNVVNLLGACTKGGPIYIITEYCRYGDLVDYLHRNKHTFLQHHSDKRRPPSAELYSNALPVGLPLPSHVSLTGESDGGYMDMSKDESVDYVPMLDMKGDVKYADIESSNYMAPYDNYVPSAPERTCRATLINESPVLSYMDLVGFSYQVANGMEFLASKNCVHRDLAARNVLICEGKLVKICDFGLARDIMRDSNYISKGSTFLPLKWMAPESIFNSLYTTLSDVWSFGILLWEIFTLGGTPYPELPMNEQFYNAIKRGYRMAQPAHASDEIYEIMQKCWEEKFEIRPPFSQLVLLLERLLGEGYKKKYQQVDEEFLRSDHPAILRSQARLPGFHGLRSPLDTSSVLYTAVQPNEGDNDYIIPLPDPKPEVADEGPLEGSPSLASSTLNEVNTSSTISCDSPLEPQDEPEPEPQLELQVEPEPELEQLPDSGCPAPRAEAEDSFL
Assay [6] has as its target Protein kinase C alpha type (Homo sapiens, UniProt P17252).
Assay [7] addresses T4, Ras-related protein Rab-10 (Homo sapiens, UniProt P61026).
T4 sequence (P61026 whole entry): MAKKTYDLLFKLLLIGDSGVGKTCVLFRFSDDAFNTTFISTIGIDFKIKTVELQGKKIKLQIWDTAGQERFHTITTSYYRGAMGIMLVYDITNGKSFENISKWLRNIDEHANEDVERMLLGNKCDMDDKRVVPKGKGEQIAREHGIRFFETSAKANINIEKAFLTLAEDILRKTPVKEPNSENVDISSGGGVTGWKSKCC
Also: in the data inactive means no Kd found up to 30 µM.

Sequence of S-adenosylmethionine synthase isoform type-2 (P31153 whole entry, canonical isoform): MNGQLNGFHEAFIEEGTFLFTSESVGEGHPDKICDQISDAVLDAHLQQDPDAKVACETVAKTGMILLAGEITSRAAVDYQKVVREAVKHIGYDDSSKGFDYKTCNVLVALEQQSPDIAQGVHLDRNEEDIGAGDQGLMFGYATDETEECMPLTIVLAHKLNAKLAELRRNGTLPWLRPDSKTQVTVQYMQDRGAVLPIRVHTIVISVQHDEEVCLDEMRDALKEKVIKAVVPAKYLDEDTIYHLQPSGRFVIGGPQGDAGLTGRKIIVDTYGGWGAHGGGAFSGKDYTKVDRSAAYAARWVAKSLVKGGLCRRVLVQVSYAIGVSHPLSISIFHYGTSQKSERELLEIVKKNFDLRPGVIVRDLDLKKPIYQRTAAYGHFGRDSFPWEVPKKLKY

As to `C#Cc1cccc(Nc2ncnc3cc4c(cc23)OCCOCCOCCO4)c1` [ICOTINIB], the Kd (in [1]; on LIM domain kinase 1; in [2]; at Midasin; in assay [3]; in assay [4]) was > 30 µM (inactive) in each case. Moreover, the Kd in assay [5], in assay [6] and in assay [7] was > 30 µM (inactive) each time.

Consider `COc1cc(F)c(F)c(Nc2ccc(I)cc2F)c1NS(=O)(=O)C1(C[C@H](O)CO)CC1` [REFAMETINIB], for which the Kd (in assay [1]; at LIM domain kinase 1; in assay [2]; at Midasin; in assay [3]; in [4]) was > 30 µM (inactive) throughout. Further, the Kd in assay [5], in assay [6] and in assay [7] was > 30 µM (inactive) in each case.

Consider `O[C@H]1CC[C@H](Nc2ncc3nc(Nc4c(F)cc(F)cc4F)n([C@H]4CCOC4)c3n2)CC1` [TANZISERTIB], for which the Kd in [1] is > 30 µM (inactive); at LIM domain kinase 1, 2.17 µM (active); in assay [2], > 30 µM (inactive); on Midasin, > 30 µM (inactive); in [3], > 30 µM (inactive); in assay [4], > 30 µM (inactive). Besides, the Kd in assay [5], in assay [6] and in assay [7] was > 30 µM (inactive) each time.

`COc1cc2ncnc3c2cc1OCCCCCN(C)Cc1ccc(Br)cc1N3` [JNJ-26483327]: the Kd (in [1]; on LIM domain kinase 1; in assay [2]; at Midasin; in assay [3]; in assay [4]) was > 30 µM (inactive) each time. The Kd in [5], in assay [6] and in assay [7] was > 30 µM (inactive) throughout.

As to `CNC(=O)c1cccc(-c2ccc3c(N4CCOC[C@@H]4C)nc(N4CCOC[C@@H]4C)nc3n2)c1` [VISTUSERTIB], the Kd (in assay [1]; on LIM domain kinase 1; in [2]; on Midasin; in assay [3]; in assay [4]) was > 30 µM (inactive) throughout. Moreover, the Kd in assay [5], in assay [6] and in assay [7] was > 30 µM (inactive) throughout.

For `Cc1cc(-c2cc(OC(=O)c3ccccc3)ccc2Cl)cc2nnc(Nc3ccc(OCCN4CCCC4)cc3)nc12` [TG100-801], the Kd (in [1]; on LIM domain kinase 1; in assay [2]; on Midasin; in [3]; in assay [4]) was > 30 µM (inactive) in each case. The Kd in assay [5] is 0.109 µM (active); in assay [6], > 30 µM (inactive); in assay [7], > 30 µM (inactive).

Turning to `O=C(Nc1ccc(OC(F)(F)F)cc1)c1sccc1NCc1ccnc2ccccc12` [OSI-930], the Kd (in assay [1]; on LIM domain kinase 1; in [2]; on Midasin; in assay [3]; in [4]) was > 30 µM (inactive) each time. In addition, the Kd in assay [5], in [6] and in assay [7] was > 30 µM (inactive) throughout.

Consider `COc1ccc(-c2ccc3ncc4c(c3c2)n(-c2ccc(N3CCNCC3)c(C(F)(F)F)c2)c(=O)n4C)cn1` [BGT-226 FREE BASE], for which the Kd (in [1]; at LIM domain kinase 1; in [2]; at Midasin; in assay [3]; in [4]) was > 30 µM (inactive) throughout. For the same compound, the Kd in assay [5], in assay [6] and in assay [7] was > 30 µM (inactive) each time.

With `CNC(=O)c1ccc(Nc2ncc(C(F)(F)F)c(NCc3nccnc3N(C)S(C)(=O)=O)n2)cc1` [DEFACTINIB], the Kd (in [1]; at LIM domain kinase 1; in assay [2]; at Midasin; in [3]; in assay [4]) was > 30 µM (inactive) throughout. In addition, the Kd in assay [5], in [6] and in assay [7] was > 30 µM (inactive) each time.

Take `O=C(O)c1ccc2c(c1)nc(Nc1cccc(Cl)c1)c1ccncc12` [SILMITASERTIB]: the Kd (in [1]; at LIM domain kinase 1; in assay [2]; at Midasin; in assay [3]; in assay [4]) was > 30 µM (inactive) in each case. Moreover, the Kd in assay [5], in assay [6] and in [7] was > 30 µM (inactive) throughout.

Turning to `c1cc(OCCN2CCCCC2)cc(-c2n[nH]c3ccc(-c4nc[nH]n4)cc23)c1` [CC-401], the Kd (in [1]; at LIM domain kinase 1; in assay [2]; on Midasin; in [3]; in [4]) was > 30 µM (inactive) throughout. Also, the Kd in [5], in assay [6] and in [7] was > 30 µM (inactive) in each case.

On to `CCN1CCN(Cc2ccc(Nc3ncc(F)c(-c4cc(F)c5nc(C)n(C(C)C)c5c4)n3)nc2)CC1` [ABEMACICLIB], for which the Kd (in assay [1]; on LIM domain kinase 1; in assay [2]; at Midasin; in assay [3]; in [4]) was > 30 µM (inactive) in each case. Moreover, the Kd is > 30 µM (inactive) in assay [5], 0.53 µM (active) in assay [6] and > 30 µM (inactive) in assay [7].
